± gives the expanded uncertainty stated by the source.
Details: Liquid, Brillouin light scattering

CCCCCCCC [octane]
speed of sound (296.97 K, 100 kPa): 1173 ± 15 m/s | speed of sound (297.28 K, 4000 kPa): 1196.5 ± 16 m/s | speed of sound (297.34 K, 7000 kPa): 1222 ± 16 m/s | speed of sound (297.35 K, 12000 kPa): 1250.8 ± 16 m/s | speed of sound (297.38 K, 10000 kPa): 1242.7 ± 16 m/s | speed of sound (303.33 K, 7000 kPa): 1199.7 ± 16 m/s | speed of sound (303.38 K, 10000 kPa): 1213.7 ± 16 m/s | speed of sound (303.42 K, 12000 kPa): 1233 ± 16 m/s | speed of sound (303.53 K, 4000 kPa): 1172.7 ± 15 m/s | speed of sound (303.61 K, 100 kPa): 1151.7 ± 15 m/s | speed of sound (318.11 K, 10000 kPa): 1164.8 ± 15 m/s | speed of sound (318.3 K, 4000 kPa): 1121.2 ± 15 m/s | speed of sound (318.35 K, 7000 kPa): 1141.4 ± 15 m/s | speed of sound (318.37 K, 100 kPa): 1089.5 ± 14 m/s | speed of sound (318.37 K, 12000 kPa): 1184.5 ± 15 m/s | speed of sound (332.26 K, 4000 kPa): 1066.7 ± 14 m/s | speed of sound (332.32 K, 10000 kPa): 1108.6 ± 14 m/s | speed of sound (332.33 K, 7000 kPa): 1089.1 ± 14 m/s | speed of sound (332.5 K, 100 kPa): 1029.1 ± 13 m/s | speed of sound (332.56 K, 12000 kPa): 1128.3 ± 15 m/s | speed of sound (347.29 K, 7000 kPa): 1031.9 ± 13 m/s | speed of sound (347.37 K, 10000 kPa): 1053.4 ± 14 m/s | speed of sound (347.4 K, 4000 kPa): 1007.2 ± 13 m/s | speed of sound (347.46 K, 12000 kPa): 1072.7 ± 14 m/s | speed of sound (347.68 K, 100 kPa): 970.1 ± 13 m/s | speed of sound (362.12 K, 10000 kPa): 1006.2 ± 13 m/s | speed of sound (362.17 K, 7000 kPa): 979.6 ± 13 m/s | speed of sound (362.28 K, 4000 kPa): 955.4 ± 12 m/s | speed of sound (362.53 K, 100 kPa): 912.3 ± 12 m/s | speed of sound (363.67 K, 12000 kPa): 1027.8 ± 13 m/s | speed of sound (377.03 K, 4000 kPa): 909.7 ± 12 m/s | speed of sound (377.33 K, 7000 kPa): 933.5 ± 12 m/s | speed of sound (377.35 K, 10000 kPa): 960.5 ± 12 m/s | speed of sound (377.5 K, 100 kPa): 855.4 ± 11 m/s | speed of sound (379.75 K, 12000 kPa): 973.9 ± 13 m/s | speed of sound (390.8 K, 4000 kPa): 860.1 ± 11 m/s | speed of sound (391 K, 7000 kPa): 892.3 ± 12 m/s | speed of sound (391.09 K, 10000 kPa): 917.4 ± 12 m/s | speed of sound (391.61 K, 100 kPa): 806.4 ± 10 m/s | speed of sound (394.67 K, 12000 kPa): 920.8 ± 12 m/s | speed of sound (403.71 K, 12000 kPa): 896.1 ± 12 m/s | speed of sound (407.38 K, 4000 kPa): 802.1 ± 10 m/s | speed of sound (407.45 K, 10000 kPa): 865.2 ± 11 m/s | speed of sound (407.46 K, 7000 kPa): 836.9 ± 11 m/s | speed of sound (412.59 K, 4000 kPa): 786.2 ± 10 m/s | speed of sound (412.65 K, 7000 kPa): 818.8 ± 11 m/s | speed of sound (412.71 K, 10000 kPa): 846.7 ± 11 m/s | speed of sound (414.33 K, 12000 kPa): 864 ± 11 m/s | speed of sound (422.61 K, 10000 kPa): 818.2 ± 11 m/s | speed of sound (422.69 K, 12000 kPa): 844.3 ± 11 m/s | speed of sound (422.73 K, 4000 kPa): 747.2 ± 9.8 m/s | speed of sound (422.88 K, 7000 kPa): 784.5 ± 10 m/s | speed of sound (431.77 K, 12000 kPa): 815.2 ± 11 m/s | speed of sound (431.82 K, 4000 kPa): 720.1 ± 9.4 m/s | speed of sound (431.88 K, 7000 kPa): 754.2 ± 9.9 m/s | speed of sound (431.92 K, 10000 kPa): 789.8 ± 10 m/s | speed of sound (442.23 K, 4000 kPa): 682.1 ± 8.9 m/s | speed of sound (442.49 K, 7000 kPa): 723.8 ± 9.5 m/s | speed of sound (442.65 K, 10000 kPa): 755.7 ± 9.9 m/s | speed of sound (442.73 K, 12000 kPa): 779.7 ± 10 m/s | speed of sound (452.55 K, 4000 kPa): 646.4 ± 8.5 m/s | speed of sound (452.64 K, 7000 kPa): 689.9 ± 9 m/s | speed of sound (452.77 K, 10000 kPa): 728.1 ± 9.5 m/s | speed of sound (452.88 K, 12000 kPa): 750.8 ± 9.8 m/s | speed of sound (462.37 K, 4000 kPa): 614.7 ± 8.1 m/s | speed of sound (462.45 K, 7000 kPa): 660.1 ± 8.7 m/s | speed of sound (462.61 K, 12000 kPa): 724.2 ± 9.4 m/s | speed of sound (465.54 K, 10000 kPa): 695.8 ± 9.1 m/s | speed of sound (472.05 K, 4000 kPa): 579.7 ± 7.7 m/s | speed of sound (472.15 K, 7000 kPa): 631.6 ± 8.3 m/s | speed of sound (472.28 K, 10000 kPa): 676.9 ± 8.9 m/s | speed of sound (472.38 K, 12000 kPa): 693.8 ± 9.1 m/s | speed of sound (482.98 K, 4000 kPa): 543 ± 7.2 m/s | speed of sound (483.04 K, 7000 kPa): 599.7 ± 7.9 m/s | speed of sound (483.12 K, 10000 kPa): 646.1 ± 8.5 m/s | speed of sound (483.14 K, 12000 kPa): 672.7 ± 8.8 m/s | speed of sound (493.41 K, 4000 kPa): 503.5 ± 6.7 m/s | speed of sound (493.48 K, 7000 kPa): 565.4 ± 7.5 m/s | speed of sound (493.62 K, 10000 kPa): 614.7 ± 8.1 m/s | speed of sound (493.73 K, 12000 kPa): 645 ± 8.5 m/s | speed of sound (502.54 K, 4000 kPa): 477.8 ± 6.4 m/s | speed of sound (502.73 K, 7000 kPa): 537.1 ± 7.1 m/s | speed of sound (502.95 K, 10000 kPa): 590.5 ± 7.8 m/s | speed of sound (503.17 K, 12000 kPa): 616.5 ± 8.1 m/s | speed of sound (513 K, 4000 kPa): 439.1 ± 6 m/s | speed of sound (513.26 K, 7000 kPa): 506.5 ± 6.8 m/s | speed of sound (513.46 K, 10000 kPa): 563.1 ± 7.5 m/s | speed of sound (513.67 K, 12000 kPa): 591.5 ± 7.8 m/s | speed of sound (522.92 K, 4000 kPa): 407.7 ± 5.7 m/s | speed of sound (523.17 K, 12000 kPa): 570.6 ± 7.6 m/s | speed of sound (523.46 K, 7000 kPa): 478.6 ± 6.5 m/s | speed of sound (523.6 K, 10000 kPa): 533.3 ± 7.1 m/s | speed of sound (532.23 K, 4000 kPa): 373.2 ± 5.3 m/s | speed of sound (532.36 K, 7000 kPa): 450.6 ± 6.2 m/s | speed of sound (532.59 K, 10000 kPa): 511.4 ± 6.8 m/s | speed of sound (532.79 K, 12000 kPa): 545.1 ± 7.2 m/s | speed of sound (537.4 K, 4000 kPa): 354.7 ± 5.1 m/s | speed of sound (537.75 K, 7000 kPa): 436.8 ± 6 m/s | speed of sound (538.1 K, 10000 kPa): 497.5 ± 6.7 m/s | speed of sound (538.41 K, 12000 kPa): 530.4 ± 7 m/s | speed of sound (542.87 K, 4000 kPa): 337.8 ± 5 m/s | speed of sound (543.27 K, 12000 kPa): 520.1 ± 6.9 m/s | speed of sound (543.83 K, 7000 kPa): 422 ± 5.8 m/s | speed of sound (544.52 K, 10000 kPa): 483.1 ± 6.5 m/s | speed of sound (546.68 K, 4000 kPa): 325.7 ± 4.8 m/s | speed of sound (547.82 K, 7000 kPa): 406.8 ± 5.7 m/s | speed of sound (548.6 K, 10000 kPa): 471.5 ± 6.4 m/s | speed of sound (549.27 K, 12000 kPa): 505.4 ± 6.7 m/s | speed of sound (550.42 K, 4000 kPa): 315.2 ± 4.7 m/s | speed of sound (552.01 K, 7000 kPa): 398.1 ± 5.6 m/s | speed of sound (552.52 K, 10000 kPa): 465.1 ± 6.3 m/s | speed of sound (552.88 K, 12000 kPa): 500.8 ± 6.7 m/s | speed of sound (557.27 K, 4000 kPa): 290.5 ± 4.5 m/s | speed of sound (558.19 K, 7000 kPa): 380.2 ± 5.4 m/s | speed of sound (558.64 K, 10000 kPa): 448 ± 6.1 m/s | speed of sound (559.37 K, 12000 kPa): 486.2 ± 6.5 m/s | speed of sound (561.2 K, 4000 kPa): 276.7 ± 4.5 m/s | speed of sound (561.87 K, 7000 kPa): 372.6 ± 5.3 m/s | speed of sound (562.27 K, 10000 kPa): 441.3 ± 6 m/s | speed of sound (562.71 K, 12000 kPa): 477.8 ± 6.4 m/s | speed of sound (566.82 K, 7000 kPa): 356.5 ± 5.2 m/s | speed of sound (566.96 K, 10000 kPa): 430.4 ± 5.9 m/s | speed of sound (567.01 K, 4000 kPa): 257.3 ± 4.3 m/s | speed of sound (567.1 K, 12000 kPa): 471 ± 6.3 m/s | speed of sound (570.16 K, 4000 kPa): 245.6 ± 4.2 m/s | speed of sound (570.2 K, 7000 kPa): 347.6 ± 5.1 m/s | speed of sound (570.48 K, 10000 kPa): 424 ± 5.8 m/s | speed of sound (570.75 K, 12000 kPa): 461 ± 6.2 m/s

From the NIST ThermoML archive (doi:10.1021/acs.jced.7b00712)
